In patent US20060052600A1, “Amino-functional chalcones” (priority 2002, published 2006):
Converted amounts (≈) assume the structure as drawn.

Legend:
[1] = tested on: DHODH (dihydroorotate dehydrogenase); assay: DHODH assay; type: biochemical; conditions: test concentration not given
[2] = tested on: Staphylococcus aureus ATCC33591 (resistant to methicillin); assay: MIC determination in broth microdilution assay
[3] = tested on: Staphylococcus intermedius #2357 (clinical isolate); assay: MIC determination in broth microdilution assay
[4] = tested on: Enterococcus faecalis ATCC29212; assay: MIC determination in broth microdilution assay
[5] = tested on: Staphylococcus aureus ATCC29213; assay: MIC determination in broth microdilution assay
[6] = tested on: Streptococcus pneumoniae #998 (clinical isolate); assay: MIC determination in broth microdilution assay
[7] = tested on: Enterococcus faecium #17501 (vancomycin-resistant clinical isolate); assay: MIC determination in broth microdilution assay
[8] = Determination of metabolic stability (liver microsomes); type: in vitro ADME, rat; conditions: for Metabolic turn-over (rat) in vitro: 20 μM, 15 min, 37° C.
Experimental: Samples were incubated for 15 min at 37° C. and the reactions were terminated by addition of equal volumes of acetonitrile. Blank incubations were performed at the same concentration but without addition of microsomes. Both blank and microsome-containing samples were made in […] of three. […] The fraction of compound metabolised during the 15 min of incubation was determined by comparison of blank and microsome-containing samples using a Waters Alliance 2690 separation module and Waters 996 PDA-detector (Waters. […] This was followed by a 5 minutes linear gradient to initial conditions, which were maintained for 5 min. The flow rate was 0.20 ml/min and injection volume 10 μl.

[9] = tested on: panel of anaerobic bacteria (Bacteroides fragilis, Clostridium perfringens, Clostridium difficele); type: cell-based; conditions: single concentration 100 μM
[10] = Determination of solubility; type: physicochemical; conditions: 0.3 M phosphate buffer, 24 hours
Experimental: Solubility of the compounds was determined by preparing a saturated solution of compound in 0.3 M phosphate buffer (pH 7.4±0.3) in a brown glass tube. The suspensions were rotated slowly for 24 hours. Aliquots were centrifuged for 10 minutes at 14.000 rpm and supernatants were diluted in 40% (v/v) acetonitrile in water prior to HPLC analysis. Concentrations of analytes were quantified against a standard curve and used as term of solubility.
The HPLC-UV method used for the assessment of solubility is the same as used in the in vitro metabolism assay.

[11] = tested on: panel of non-fastidious bacteria (Gram-positive pathogens and Eschericia coli); assay: Activity against non-fastidious bacteria (panel, results in words); conditions: Gram-positive pathogens
Eschericia coli ESS = assay: MIC determination in broth microdilution assay

CN1CCN(Cc2cccc(C(=O)/C=C/c3ccc(Cl)cc3Cl)c2)CC1 [A021, (E)-3-(2,4-Dichloro-phenyl)-1-[3-(4-methyl-piperazin-1-ylmethyl)-phenyl]-propenone]
Inhibition of DHODH [1]: 27%

C=CC(C)(C)c1cc(/C=C/C(=O)c2cccc(CN(C)C)c2)c(OC)cc1O [A137, (E)-3-[5-(1,1-Dimethyl-allyl)-4-hydroxy-2-methoxy-phenyl]-1-(3-dimethylaminomethyl-phenyl)-propenone]
MIC, B: Staphylococcus aureus ATCC33591 [2]: 9.4 µM (≈ 3.57 µg/mL) | MIC, C: Staphylococcus intermedius #2357 [3]: 9.4 µM (≈ 3.57 µg/mL) | MIC, D: Enterococcus faecalis ATCC29212 [4]: 9.4 µM (≈ 3.57 µg/mL) | MIC, A: Staphylococcus aureus ATCC29213 [5]: 4.7 µM (≈ 1.78 µg/mL) | MIC, F: Streptococcus pneumoniae #998 [6]: 37.5 µM (≈ 14.2 µg/mL) | MIC, E: Enterococcus faecium #17501 [7]: 9.4 µM (≈ 3.57 µg/mL)

CCCCN(CCCC)c1ccc(/C=C/C(=O)c2ccc(OC)c(CN(C)C)c2)cc1 [A110, (E)-3-(4-Dibutylamino-phenyl)-1-(3-dimethylaminomethyl-4-methoxy-phenyl)-propenone]
Metabolic turn-over (rat) in vitro [8]: 6%

CN(C)Cc1ccc(C(=O)/C=C/c2ccc(Cl)cc2Cl)cc1 [A011, (E)-3-(2,4-Dichloro-phenyl)-1-(4-dimethylaminomethyl-phenyl)-propenone]
activity against anaerobic bacteria [9]: activity against all microorganisms within the test panel

COc1ccc(OC)c(/C=C/C(=O)c2ccccc2CN(C)C)c1 [A029, (E)-3-(2,5-Dimethoxy-phenyl)-1-(2-dimethylaminomethyl-phenyl)-propenone]
Metabolic turn-over (rat) in vitro [8]: 3%

CN(C)Cc1ccccc1C(=O)/C=C/c1cccc(Nc2cccnc2)c1 [A090, (E)-1-(2-Dimethylaminomethyl-phenyl)-3-[3-(pyridin-3-ylamino)-phenyl]-propenone]
activity against anaerobic bacteria [9]: activity against all microorganisms within the test panel

CCN(CC)Cc1ccccc1C(=O)/C=C/c1ccc(Cl)cc1Cl [A045, (E)-3-(2,4-Dichloro-phenyl)-1-(2-diethylaminomethyl-phenyl)-propenone]
Inhibition of DHODH [1]: 20%

COc1ccc(C(=O)/C=C/c2ccc(CNCCN(C)C)cc2)cc1 [A005, (E)-3-{4-[(2-Dimethylamino-ethylamino)-methyl]-phenyl}-1-(4-methoxy-phenyl)-propenone]
Solubility in aqueous buffer at pH 7.4 [10]: >6 mg/ml

COc1ccc(C(=O)/C=C/c2ccc(OC)c(CN(C)C)c2)cc1 [A086, (E)-3-(3-Dimethylaminomethyl-4-methoxy-phenyl)-1-(4-methoxy-phenyl)-propenone]
Solubility in aqueous buffer at pH 7.4 [10]: 8.9 mg/ml

CCCCN(CCCC)c1ccc(/C=C/C(=O)c2ccccc2CN(C)C)cc1 [A030, (E)-3-(4-Dibutylamino-phenyl)-1-(2-dimethylaminomethyl-phenyl)-propenone]
MIC, B: Staphylococcus aureus ATCC33591 [2]: 9.4 µM (≈ 3.69 µg/mL) | MIC, C: Staphylococcus intermedius #2357 [3]: 9.4 µM (≈ 3.69 µg/mL) | MIC, D: Enterococcus faecalis ATCC29212 [4]: 18.8 µM (≈ 7.38 µg/mL) | potency against Gram-positive pathogens in comparison with Licochalcone A [11]: increased potency | MIC, A: Staphylococcus aureus ATCC29213 [5]: 9.4 µM (≈ 3.69 µg/mL) | MIC, F: Streptococcus pneumoniae #998 [6]: 18.8 µM (≈ 7.38 µg/mL) | MIC, H: Eschericia coli ESS (Eschericia coli ESS): 18.8 µM (≈ 7.38 µg/mL) | activity against the ESS strain of E. coli (Eschericia coli ESS): considerable activity | MIC, E: Enterococcus faecium #17501 [7]: 18.8 µM (≈ 7.38 µg/mL)

O=C(/C=C/c1ccc(Cl)cc1Cl)c1ccccc1CN1CCOCC1 [A037, (E)-3-(2,4-Dichloro-phenyl)-1-(2-morpholin-4-ylmethyl-phenyl)-propenone]
activity against anaerobic bacteria [9]: activity against all microorganisms within the test panel

COc1ccc(OC)c(/C=C/C(=O)c2ccccc2CN2CCNCC2)c1 [A049, (E)-3-(2,5-Dimethoxy-phenyl)-1-(2-piperazin-1-ylmethyl-phenyl)-propenone]
Metabolic turn-over (rat) in vitro [8]: 0% | Solubility in aqueous buffer at pH 7.4 [10]: 6.3 mg/ml

C=CC(C)(C)c1cc(/C=C/C(=O)c2ccccc2CN2CCN(C)CC2)c(OC)cc1Cl [A083, (E)-3-[4-Chloro-5-(1,1-dimethyl-allyl)-2-methoxy-phenyl]-1-[2-(4-methyl-piperazin-1-ylmethyl)-phenyl]-propenone]
MIC, B: Staphylococcus aureus ATCC33591 [2]: 9.4 µM (≈ 4.26 µg/mL) | MIC, C: Staphylococcus intermedius #2357 [3]: 18.8 µM (≈ 8.52 µg/mL) | MIC, D: Enterococcus faecalis ATCC29212 [4]: 18.8 µM (≈ 8.52 µg/mL) | potency against Gram-positive pathogens in comparison with Licochalcone A [11]: increased potency | MIC, A: Staphylococcus aureus ATCC29213 [5]: 9.4 µM (≈ 4.26 µg/mL) | MIC, F: Streptococcus pneumoniae #998 [6]: 18.8 µM (≈ 8.52 µg/mL) | MIC, H: Eschericia coli ESS (Eschericia coli ESS): 9.4 µM (≈ 4.26 µg/mL) | activity against the ESS strain of E. coli (Eschericia coli ESS): considerable activity | MIC, E: Enterococcus faecium #17501 [7]: 9.4 µM (≈ 4.26 µg/mL)

CCCN(CCC)c1ccc(/C=C/C(=O)c2ccccc2CN(C)C)c(OCC)c1 [A084, (E)-1-(2-Dimethylaminomethyl-phenyl)-3-(4-dipropylamino-2-ethoxy-phenyl)-propenone]
activity against the ESS strain of E. coli (Eschericia coli ESS): considerable activity

COc1ccc(Nc2cccnc2)cc1/C=C/C(=O)c1ccccc1CN(C)C [A102, (E)-1-(2-Dimethylaminomethyl-phenyl)-3-[2-methoxy-5-(pyridin-3-ylamino)-phenyl]-propenone]
Metabolic turn-over (rat) in vitro [8]: 2% | metabolism (turn-over), rat ([8]; rat): 2%

CCCCN(CCCC)c1cccc(/C=C/C(=O)c2ccc(OC)c(CN(C)C)c2)c1 [A129, (E)-3-(3-Dibutylamino-phenyl)-1-(3-dimethylaminomethyl-4-methoxy-phenyl)-propenone]
MIC, B: Staphylococcus aureus ATCC33591 [2]: 9.4 µM (≈ 3.97 µg/mL) | MIC, C: Staphylococcus intermedius #2357 [3]: 9.4 µM (≈ 3.97 µg/mL) | MIC, D: Enterococcus faecalis ATCC29212 [4]: 9.4 µM (≈ 3.97 µg/mL) | MIC, A: Staphylococcus aureus ATCC29213 [5]: 4.7 µM (≈ 1.99 µg/mL) | MIC, F: Streptococcus pneumoniae #998 [6]: 37.5 µM (≈ 15.8 µg/mL) | MIC, H: Eschericia coli ESS (Eschericia coli ESS): 9.4 µM (≈ 3.97 µg/mL) | MIC, E: Enterococcus faecium #17501 [7]: 9.4 µM (≈ 3.97 µg/mL)

CCCCN(CCCC)c1ccc(/C=C/C(=O)c2ccc(CN(C)C)cc2)cc1 [A033, (E)-3-(4-Dibutylamino-phenyl)-1-(4-dimethylaminomethyl-phenyl)-propenone]
MIC, B: Staphylococcus aureus ATCC33591 [2]: 9.4 µM (≈ 3.69 µg/mL) | MIC, C: Staphylococcus intermedius #2357 [3]: 4.7 µM (≈ 1.85 µg/mL) | MIC, D: Enterococcus faecalis ATCC29212 [4]: 9.4 µM (≈ 3.69 µg/mL) | potency against Gram-positive pathogens in comparison with Licochalcone A [11]: increased potency | MIC, A: Staphylococcus aureus ATCC29213 [5]: 4.7 µM (≈ 1.85 µg/mL) | MIC, F: Streptococcus pneumoniae #998 [6]: 75.0 µM (≈ 29.4 µg/mL) | MIC, H: Eschericia coli ESS (Eschericia coli ESS): 150.0 µM (≈ 58.9 µg/mL) | MIC, E: Enterococcus faecium #17501 [7]: 9.4 µM (≈ 3.69 µg/mL)

CCCCN(CCCC)c1ccc(/C=C/C(=O)c2ccc(CN3CCN(C)CC3)cc2)cc1 [A025, (E)-3-(4Dibutylamino-phenyl)-1-[4-(4-methyl-piperazin-1-ylmethyl)-phenyl]-propenone]
MIC, B: Staphylococcus aureus ATCC33591 [2]: 9.4 µM (≈ 4.21 µg/mL) | MIC, C: Staphylococcus intermedius #2357 [3]: 9.4 µM (≈ 4.21 µg/mL) | MIC, D: Enterococcus faecalis ATCC29212 [4]: 9.4 µM (≈ 4.21 µg/mL) | potency against Gram-positive pathogens in comparison with Licochalcone A [11]: increased potency | MIC, A: Staphylococcus aureus ATCC29213 [5]: 9.4 µM (≈ 4.21 µg/mL) | MIC, F: Streptococcus pneumoniae #998 [6]: 37.5 µM (≈ 16.8 µg/mL) | MIC, H: Eschericia coli ESS (Eschericia coli ESS): 75.0 µM (≈ 33.6 µg/mL) | MIC, E: Enterococcus faecium #17501 [7]: 9.4 µM (≈ 4.21 µg/mL) | Inhibition of DHODH [1]: 26%

COc1ccc(C(=O)/C=C/c2cccc(CN3CCN(C)CC3)c2)cc1 [A013, (E)-1-(4-Methoxy-phenyl)-3-[3-(4-methyl-piperazin-1-ylmethyl)-phenyl]-propenone]
Solubility in aqueous buffer at pH 7.4 [10]: 31.2 mg/ml

CN(C)Cc1cccc(C(=O)/C=C/c2ccc(Cl)cc2Cl)c1 [A020, (E)-3-(2,4-Dichloro-phenyl)-1-(3-dimethylaminomethyl-phenyl)-propenone]
Inhibition of DHODH [1]: 23%

COc1ccc(C(=O)/C=C/c2cccc(CNCCN(C)C)c2)cc1 [A010, (E)-3-{3-[(2-Dimethylamino-ethylamino)-methyl]-phenyl}-1-(4-methoxy-phenyl)-propenone]
Metabolic turn-over (rat) in vitro [8]: 1% | Solubility in aqueous buffer at pH 7.4 [10]: 33.4 mg/ml

CNCc1cccc(/C=C/C(=O)c2ccc(OC)cc2)c1 [A099, (E)-1-(4-Methoxy-phenyl)-3-(3-methylaminomethyl-phenyl)-propenone]
Metabolic turn-over (rat) in vitro [8]: 7%

CN1CCN(Cc2ccccc2C(=O)/C=C/c2ccc(Cl)cc2Cl)CC1 [A026, (E)-3-(2,4-Dichloro-phenyl)-1-[2-(4-methyl-piperazin-1-ylmethyl)-phenyl]-propenone]
activity against anaerobic bacteria [9]: activity against all microorganisms within the test panel

COc1ccc(C(=O)/C=C/c2cccc(CN(C)CCN(C)C)c2)cc1 [A069, (E)-3-(3-{[(2-Dimethylamino-ethyl)-methyl-amino]-methyl}-phenyl)-1-(4-methoxy-phenyl)-propenone]
Solubility in aqueous buffer at pH 7.4 [10]: >10 mg/ml
